Assay results: PMC4750701, “Role of Mitochondrial RNA Polymerase in the Toxicity of Nucleotide Inhibitors of Hepatitis C Virus” (Antimicrobial Agents and Chemotherapy, 2016)
Where two headings read alike, the source gives them in different places.

Experiments:
[1] = target: T1, Human DNA polymerase alpha (Homo sapiens, UniProt P09884); experiment: Inhibition of human DNA polymerase alpha; type: biochemical; settings: triphosphate form of the compound tested; read-out: Mean IC50 ± SD for DNA Pol α
T1 construct: isolated from HeLa cell extracts; purchased CHIMERx (Madison, WI); host or cells: HeLa cell extracts (endogenous enzyme)
T1 sequence (P09884 whole entry): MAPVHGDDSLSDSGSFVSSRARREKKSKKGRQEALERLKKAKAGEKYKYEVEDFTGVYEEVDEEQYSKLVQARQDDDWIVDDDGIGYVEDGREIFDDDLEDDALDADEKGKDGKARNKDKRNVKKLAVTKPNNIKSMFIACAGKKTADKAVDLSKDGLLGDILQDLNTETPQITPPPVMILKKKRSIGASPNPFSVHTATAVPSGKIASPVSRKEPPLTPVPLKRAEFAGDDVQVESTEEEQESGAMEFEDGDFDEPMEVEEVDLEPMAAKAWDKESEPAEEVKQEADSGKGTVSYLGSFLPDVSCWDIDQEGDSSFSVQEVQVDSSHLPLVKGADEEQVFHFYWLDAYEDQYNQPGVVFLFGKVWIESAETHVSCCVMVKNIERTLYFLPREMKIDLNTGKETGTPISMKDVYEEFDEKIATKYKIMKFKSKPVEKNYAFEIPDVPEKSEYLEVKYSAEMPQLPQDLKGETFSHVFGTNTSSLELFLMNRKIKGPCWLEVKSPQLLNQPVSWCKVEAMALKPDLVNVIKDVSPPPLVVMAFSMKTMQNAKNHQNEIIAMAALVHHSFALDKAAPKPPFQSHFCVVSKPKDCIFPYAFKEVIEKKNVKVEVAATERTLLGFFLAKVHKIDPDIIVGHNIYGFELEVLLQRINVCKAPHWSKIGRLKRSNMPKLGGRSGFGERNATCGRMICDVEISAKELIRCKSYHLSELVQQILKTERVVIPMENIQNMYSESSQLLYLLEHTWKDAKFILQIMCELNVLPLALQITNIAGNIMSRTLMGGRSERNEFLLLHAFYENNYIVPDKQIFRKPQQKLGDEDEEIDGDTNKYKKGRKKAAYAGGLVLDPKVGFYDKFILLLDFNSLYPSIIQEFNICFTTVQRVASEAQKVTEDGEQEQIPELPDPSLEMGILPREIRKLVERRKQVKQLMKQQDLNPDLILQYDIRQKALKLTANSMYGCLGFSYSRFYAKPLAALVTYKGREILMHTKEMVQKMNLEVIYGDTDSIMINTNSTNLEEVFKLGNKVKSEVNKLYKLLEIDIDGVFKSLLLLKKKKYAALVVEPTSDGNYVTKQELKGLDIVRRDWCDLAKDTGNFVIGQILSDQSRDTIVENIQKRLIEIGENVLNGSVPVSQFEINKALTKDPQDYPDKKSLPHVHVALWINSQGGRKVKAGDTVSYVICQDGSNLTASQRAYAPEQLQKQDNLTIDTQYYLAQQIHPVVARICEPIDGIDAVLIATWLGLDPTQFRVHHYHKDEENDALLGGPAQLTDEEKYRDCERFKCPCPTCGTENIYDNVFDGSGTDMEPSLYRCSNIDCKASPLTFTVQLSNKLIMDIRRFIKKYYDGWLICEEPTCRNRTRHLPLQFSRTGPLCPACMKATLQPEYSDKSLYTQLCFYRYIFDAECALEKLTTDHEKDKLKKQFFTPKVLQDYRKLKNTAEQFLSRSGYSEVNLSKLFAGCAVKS
T1 sequence (Q14181 whole entry partner): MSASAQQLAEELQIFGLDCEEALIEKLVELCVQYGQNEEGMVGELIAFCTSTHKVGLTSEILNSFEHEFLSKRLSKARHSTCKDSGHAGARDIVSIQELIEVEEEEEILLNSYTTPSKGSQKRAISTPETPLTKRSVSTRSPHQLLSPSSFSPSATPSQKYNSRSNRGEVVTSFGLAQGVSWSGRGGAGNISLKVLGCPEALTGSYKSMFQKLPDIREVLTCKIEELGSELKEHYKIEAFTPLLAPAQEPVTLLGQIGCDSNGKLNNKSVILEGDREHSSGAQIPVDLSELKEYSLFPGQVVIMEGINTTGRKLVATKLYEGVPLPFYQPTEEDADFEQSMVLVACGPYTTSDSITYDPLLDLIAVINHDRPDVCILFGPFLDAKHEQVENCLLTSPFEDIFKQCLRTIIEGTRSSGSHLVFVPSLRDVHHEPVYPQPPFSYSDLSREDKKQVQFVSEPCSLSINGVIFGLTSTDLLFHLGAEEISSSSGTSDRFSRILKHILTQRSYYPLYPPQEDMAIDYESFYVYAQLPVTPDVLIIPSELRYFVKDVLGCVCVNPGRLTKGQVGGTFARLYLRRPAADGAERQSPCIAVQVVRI
T1 sequence (P49642 whole entry partner): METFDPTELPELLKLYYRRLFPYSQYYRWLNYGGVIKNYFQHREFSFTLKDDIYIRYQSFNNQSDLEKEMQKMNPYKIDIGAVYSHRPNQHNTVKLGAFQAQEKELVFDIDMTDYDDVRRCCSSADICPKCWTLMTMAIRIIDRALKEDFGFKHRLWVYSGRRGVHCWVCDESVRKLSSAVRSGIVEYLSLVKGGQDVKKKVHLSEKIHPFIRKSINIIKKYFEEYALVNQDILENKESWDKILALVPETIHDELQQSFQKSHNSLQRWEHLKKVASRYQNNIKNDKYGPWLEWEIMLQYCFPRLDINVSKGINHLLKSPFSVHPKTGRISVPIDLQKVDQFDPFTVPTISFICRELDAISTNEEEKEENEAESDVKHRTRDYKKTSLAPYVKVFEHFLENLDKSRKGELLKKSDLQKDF
T1 sequence (P49643 whole entry partner): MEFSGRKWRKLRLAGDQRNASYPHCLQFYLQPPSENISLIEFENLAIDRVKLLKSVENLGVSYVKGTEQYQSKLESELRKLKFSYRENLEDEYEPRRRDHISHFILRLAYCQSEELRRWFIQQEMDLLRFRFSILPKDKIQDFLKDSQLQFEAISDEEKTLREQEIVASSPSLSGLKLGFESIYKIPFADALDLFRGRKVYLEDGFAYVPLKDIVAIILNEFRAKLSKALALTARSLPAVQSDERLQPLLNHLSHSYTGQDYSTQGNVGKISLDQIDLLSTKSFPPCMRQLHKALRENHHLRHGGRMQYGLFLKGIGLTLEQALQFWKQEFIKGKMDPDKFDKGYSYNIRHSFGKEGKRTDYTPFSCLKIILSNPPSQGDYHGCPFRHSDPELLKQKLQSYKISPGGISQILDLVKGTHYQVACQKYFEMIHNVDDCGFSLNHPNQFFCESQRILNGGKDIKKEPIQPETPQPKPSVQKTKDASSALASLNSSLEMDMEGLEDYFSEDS
Excerpt: Activated fish sperm DNA was purchased from USB/Affymetrix (Santa Clara, CA) and used as a template for the DNA polymerases alpha, beta, and gamma. […] The RNA and DNA oligonucleotides used in the mitochondrial RNA polymerase assay (see Table S1 in the supplemental material) were synthesized and PAGE purified by Thermo Scientific/Dharmacon (Lafayette, CO). RNA primer R12 was 5′-^32P-phosphorylated with [γ-^32P]ATP (3,000 Ci/mmol) and T4 kinase (New England BioLabs, Ipswich, MA).
(§1) Human DNA polymerase alpha, isolated from HeLa cell extracts, was from CHIMERx (Madison, WI). Recombinant human DNA polymerase beta, expressed in E. coli, was a gift from Zucai Suo at The Ohio State University. Recombinant human DNA polymerase gamma (including both the large subunit and the small subunit) was cloned, expressed, and purified from insect cells by Gilead Sciences (Foster City, CA) ([13]). RNA PolII was purchased as part of the HeLaScribe nuclear extract in vitro transcription system kit from Promega (Madison, WI). The recombinant human PolRMT and the transcription factors mitochondrial transcription factor A (mtTFA) and B2 (mtTFB2) were purchased from Enzymax (Lexington, KY). FLAG epitope-tagged RNA PolI and PolIII complexes were isolated from rat NSN1 cells and HeLa cells, respectively ([17], [18]). The inhibition of DNA polymerases alpha, beta, and gamma, PolRMT, and PolII and the rate of single-nucleotide incorporation by PolRMT have been described previously in detail ([12], [13], [19]). Inhibition of RNA PolI and PolIII was studied using published methods ([20], [21]). All concentrations were final unless noted otherwise. […] After incubation at 30°C for 20 min to 1 h, the reactions were terminated by pipetting the mixtures onto DEAE-cellulose discs (DE81; Whatman), and the products analyzed as described previously ([20], [21]).

RNA PolII = target: T2, RNA PolII (Homo sapiens, UniProt P24928+P30876); experiment: Inhibition of RNA PolII (HeLaScribe nuclear extract transcription); type: biochemical; settings: read-out: Mean IC50 ± SD for RNA PolII
T2 construct: purchased as part of the HeLaScribe nuclear extract in vitro transcription system kit; purchased Promega (Madison, WI); host or cells: HeLa nuclear extract (endogenous enzyme)
Excerpt: Activated fish sperm DNA was purchased from USB/Affymetrix (Santa Clara, CA) and used as a template for the DNA polymerases alpha, beta, and gamma. The DNA template used in the RNA Pol II assay was a 1,188-bp restriction fragment containing the cytomegalovirus (CMV) immediate early promoter (Promega, Madison, WI). The RNA and DNA oligonucleotides used in the mitochondrial RNA polymerase assay (see Table S1 in the supplemental material) were synthesized and PAGE purified by Thermo Scientific/Dharmacon (Lafayette, CO). RNA primer R12 was 5′-^32P-phosphorylated with [γ-^32P]ATP (3,000 Ci/mmol) and T4 kinase (New England BioLabs, Ipswich, MA).
as §1, with “otherwise. For the RNA PolI inhibition assay, a reaction mixture containing 50 mM HEPES (pH 7.9), 20% glycerol, 100 mM KCl, 1 mM dithiothreitol (DTT), 50 μg/ml calf thymus DNA, 4 mM MgCl2, 5 or 80 μM UTP (0.25 μl of [5,6-^3H]UTP, >25 Ci/mmol; PerkinElmer), 1 mM noncompeting NTP, competing NTP (5 μM for GTP, CTP, and UTP and 25 μM for ATP), and various concentrations (0 to 500 μM) of NTP analogs was preincubated at 30°C for 5 min.” for “otherwise.”

[2] = tested on: nuclear DNA-encoded succinate dehydrogenase (SDH-A; complex II) protein level; experiment: Nuclear protein synthesis (SDH-A, MitoBiogenesis in-cell ELISA) in PC-3 cells; type: cell-based, human; settings: human, read-out: Mean CC50 ± SD causing General cellular toxicity: Protein synthesis
Procedure, shortened: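 PC-3 cells were exposed to compound for 5 days. Protein levels of nuclear-encoded SDH-A and mitochondrial-encoded COX-1 were then quantified by in-cell ELISA (quantitative immunocytochemistry).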

[3] = triphosphate form of the compound tested (Table 4)

SMILES: CCOc1nc(N)nc2c1ncn2[C@@H]1O[C@@H]2COP(=O)(OC(C)C)O[C@H]2[C@@]1(C)F (stereo partly shown) [PSI-938]
- IC50 [1]: > 200 µM
- IC50 (RNA PolII; [3]): > 200 µM
- CC50 at 5 days [2]: > 100 µM

SMILES: CC(C)OC(=O)[C@H](C)N[P@](=O)(OC[C@H]1O[C@@](C#N)(c2ccc3c(N)ncnn23)[C@](C)(O)[C@@H]1OC(=O)C(C)C)Oc1ccccc1 [GS-6620]
- IC50 [1]: > 200 µM
- IC50 (RNA PolII; [3]): > 200 µM
- CC50 at 5 days [2]: 45 ± 2 µM

SMILES: C[C@@]1(O)[C@H](O)[C@@H](CO)O[C@H]1n1ccc(N)nc1=O [2′CMeC, 2′-C-methyl (2′CMe) cytidine]
- IC50 [1]: > 200 µM
- IC50 (RNA PolII; [3]): > 200 µM
- CC50 at 5 days [2]: 68 ± 26 µM

SMILES: C[C@@]1(O)[C@H](O)[C@@H](COP(=O)(O)OP(=O)(O)OP(=O)(O)O)O[C@H]1n1cnc2c(=O)[nH]c(N)nc21 [2′CMeGTP]
- IC50 [1]: > 200 µM
- IC50 (RNA PolII; nucleotide analogs (Table 6)): > 500 µM
- IC50 (RNA PolII; [3]): > 200 µM

SMILES: CC(C)OC(=O)[C@H](C)N[P@](=O)(OC[C@H]1O[C@@H](n2ccc(=O)[nH]c2=O)[C@](C)(F)[C@@H]1O)Oc1ccccc1 [Sofosbuvir]
- IC50 [1]: > 200 µM
- IC50 (RNA PolII; [3]): > 200 µM
- CC50 at 5 days [2]: > 100 µM

SMILES: [N-]=[N+]=N[C@]1(CO)O[C@@H](n2ccc(N)nc2=O)[C@H](O)[C@@H]1O [4′-AzidoC, 4′-azido cytidine]
- IC50 [1]: > 200 µM
- IC50 (RNA PolII; [3]): > 200 µM
- CC50 at 5 days [2]: > 50 µM

SMILES: COc1nc(N)nc2c1ncn2[C@@H]1O[C@H](COP(=O)(N[C@@H](C)C(=O)OCC(C)(C)C)Oc2cccc3ccccc23)[C@@H](O)[C@@]1(C)O (stereo partly shown) [BMS-986094]
- CC50 at 5 days [2]: 0.84 ± 0.26 µM

SMILES: C[C@@]1(F)[C@H](O)[C@@H](CO)O[C@H]1n1ccc(N)nc1=O [PSI-6130]
- IC50 [1]: > 200 µM
- IC50 (RNA PolII; [3]): > 200 µM
- CC50 at 5 days [2]: > 100 µM
